Experimental data: the supplement of paper PMC10307832

How the values were obtained:
Assay in all cases: relative viability (nuclei count vs DMSO), 5 days (fraction); higher = more cells survive
Selumetinib + Tozasertib = compound: Cn1cnc2c(F)c(Nc3ccc(Br)cc3Cl)c(C(=O)NOCCO)cc21 [Selumetinib] + Cc1cc(Nc2cc(N3CCN(C)CC3)nc(Sc3ccc(NC(=O)C4CC4)cc3)n2)n[nH]1 [Tozasertib] (partner 0.1 µM)
In short: (§1)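 The day after seeding in 1536-well plates, lung cancer cell lines were treated by pin tool with a single drug, or with a fixed anchor-drug dose together with five library-drug doses (not always all listed) in √10 steps. After 5 days, a combined fix-and-stain solution (final 0.05% Triton X-100, 1% formaldehyde, 1 ug/ml Hoechst) was added. Nuclei counted on 4× images gave relative viability as treated counts over vehicle counts, reported as the median of duplicate plates.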

Selumetinib + Alpelisib = compound: Cn1cnc2c(F)c(Nc3ccc(Br)cc3Cl)c(C(=O)NOCCO)cc21 [Selumetinib] + Cc1nc(NC(=O)N2CCC[C@H]2C(N)=O)sc1-c1ccnc(C(C)(C)C(F)(F)F)c1 [Alpelisib] (partner 2 µM)
In short: as §1

Selumetinib + Olaparib = compound: Cn1cnc2c(F)c(Nc3ccc(Br)cc3Cl)c(C(=O)NOCCO)cc21 [Selumetinib] + O=C(c1cc(Cc2n[nH]c(=O)c3ccccc23)ccc1F)N1CCN(C(=O)C2CC2)CC1 [Olaparib] (partner 8 µM)
In short: as §1

Venetoclax + Lapatinib = compound: CC1(C)CCC(CN2CCN(c3ccc(C(=O)NS(=O)(=O)c4ccc(NCC5CCOCC5)c([N+](=O)[O-])c4)c(Oc4cnc5[nH]ccc5c4)c3)CC2)=C(c2ccc(Cl)cc2)C1 [Venetoclax] + CS(=O)(=O)CCNCc1ccc(-c2ccc3ncnc(Nc4ccc(OCc5cccc(F)c5)c(Cl)c4)c3c2)o1 [Lapatinib] (partner 2 µM)
In short: as §1

Cell Line | relative viability (Selumetinib + Tozasertib; first compound 0.02 µM) | relative viability (Selumetinib + Tozasertib; first compound 0.06325 µM) | relative viability (Selumetinib + Tozasertib; first compound 0.2 µM) | relative viability (Selumetinib + Tozasertib; first compound 0.6325 µM) | relative viability (Selumetinib + Alpelisib; first compound 0.02 µM) | relative viability (Selumetinib + Alpelisib; first compound 0.06325 µM) | relative viability (Selumetinib + Alpelisib; first compound 0.2 µM) | relative viability (Selumetinib + Alpelisib; first compound 0.6325 µM) | relative viability (Selumetinib + Olaparib; first compound 0.02 µM) | relative viability (Selumetinib + Olaparib; first compound 0.06325 µM) | relative viability (Selumetinib + Olaparib; first compound 0.2 µM) | relative viability (Selumetinib + Olaparib; first compound 0.6325 µM) | relative viability (Venetoclax + Lapatinib; first compound 0.01 µM) | relative viability (Venetoclax + Lapatinib; first compound 0.03162 µM) | relative viability (Venetoclax + Lapatinib; first compound 0.1 µM) | relative viability (Venetoclax + Lapatinib; first compound 0.3162 µM) | relative viability (Venetoclax + Lapatinib; first compound 1 µM)
LXF-289 | 0.219 | 0.229 | 0.191 | 0.159 | 0.928 | 0.854 | 0.841 | 0.762 | 1.04 | 1.01 | 0.963 | 1.04 | 0.956 | 0.925 | 0.874 | 0.906 | 0.809
NCI-H23 | 0.36 | 0.301 | 0.224 | 0.31 | 0.628 | 0.589 | 0.438 | 0.358 | 0.283 | 0.312 | 0.267 | 0.293 | 1.11 | 1.14 | 0.942 | 1.12 | 0.984
NCI-H322M | 0.391 | 0.418 | 0.369 | 0.366 | 0.643 | 0.549 | 0.563 | 0.532 | 0.662 | 0.63 | 0.564 | 0.599 | 0.659 | 0.601 | 0.552 | 0.533 | 0.57
NCI-H441 | 0.587 | 0.656 | 0.636 | 0.583 | 0.775 | 0.754 | 0.656 | 0.647 | 0.613 | 0.609 | 0.517 | 0.444 | – | – | – | – | –
NCI-H522 | 0.567 | 0.515 | 0.537 | 0.505 | – | – | – | – | 0.676 | 0.74 | 0.542 | 0.581 | – | – | – | – | –
NCI-H1299 | – | – | – | – | 1.04 | 1.03 | 1.03 | 0.697 | 1.08 | 1.08 | 1.11 | 0.932 | 0.993 | 0.96 | 0.976 | 0.959 | 0.909
NCI-H1563 | – | – | – | – | 0.969 | 0.838 | 0.964 | 0.877 | – | – | – | – | 0.691 | 1.08 | 1.14 | 1.28 | 0.953
NCI-H1623 | 0.343 | 0.342 | 0.351 | 0.361 | – | – | – | – | – | – | – | – | – | – | – | – | –
NCI-H1648 | 0.54 | 0.488 | 0.487 | 0.456 | – | – | – | – | – | 0.914 | 0.742 | 0.493 | – | – | – | – | –
NCI-H1650 | 0.332 | 0.394 | 0.312 | 0.308 | – | – | – | – | 0.669 | 0.654 | 0.712 | 0.646 | 0.764 | 0.873 | – | 1.01 | 0.81
NCI-H1703 | – | – | – | – | 0.368 | 0.25 | 0.327 | 0.314 | 0.521 | 0.411 | 0.39 | 0.605 | 0.992 | 1.11 | 0.895 | 1.01 | 1.03
NCI-H1792 | – | – | – | – | 0.684 | 0.603 | 0.485 | 0.386 | 0.256 | 0.353 | 0.439 | 0.235 | 0.933 | 0.946 | 0.869 | 0.916 | 0.803
NCI-H2342 | 0.461 | 0.546 | 0.473 | 0.576 | – | – | – | – | 0.403 | 0.4 | 0.43 | 0.415 | – | – | – | – | –
SW 900 | 0.609 | 0.517 | 0.564 | 0.478 | – | – | – | – | 0.96 | 0.798 | 0.788 | 0.843 | – | – | – | – | –
